“And” between values parts separate entries of the source, which are not always exact repeats. Equal values may be shown once.
Tests used:
[1] = tested on: normal kidney epithelial cells (Vero); test: Cytotoxicity by MTT assay on Vero; format: cell-based; details: 48 h incubation
Description: (§1) Cytotoxicity of the synthesized compounds was evaluated in cancer cells namely human colon cancer (HCT-116) cells and human breast cancer (MCF-7) cells and normal kidney epithelial cells (Vero). These cells were originally procured from National Cancer Center for Cell Science, Pune, India and cultured in our lab using Dulbecco's modified Eagles medium (DMEM) containing 10 % fetal bovine serum (FBS) at 37 °C in an atmosphere containing 5 % CO2. All other chemicals used in this study were purchased from Sigma-Aldrich, USA.
(§2) Cell suspension containing 1 x 10^4 cells in 0.1 mL was seeded in a 96 well plate for 24 h. Test compounds were serially diluted with the medium to get a stock solution of 400 µM, 200 µM, 100 µM, 50 µM. After 24 h of incubation, 100 µL of test solution from respective stocks was added in triplicate and incubated for 48 h. After the treatment, drug-containing media was removed and 20 µL of MTT reagent (5 mg/mL in PBS) was added to each well. After 4 h of incubation at 37 °C, the MTT reagent was removed and 100 µL of 100 % DMSO was added to each well to solubilize formazan crystals. The optical density was measured using an ELISA plate reader at 540 nm and percentage cytotoxicity was calculated. (Kumar et al., 2012[15]; Zi and Simoneau, 2005[31]).

[2] = tested on: human breast cancer (MCF-7) cells; test: Cytotoxicity by MTT assay on MCF-7; format: cell-based; details: for IC50 / IC50 (μM) MCF-7: MTT assay, 48 h incubation; for cytotoxicity against MCF-7 (in words): MTT, close to 200 µM including SEM
Description: as §1, §2

[3] = tested on: human colon cancer (HCT-116) cells; test: Cytotoxicity by MTT assay on HCT-116; format: cell-based; details: for IC50 / IC50 (μM) HCT-116: MTT assay, 48 h incubation; for cytotoxicity against HCT-116 (in words): MTT, close to 200 µM including SEM
Description: as §1, §2

HCT-116 cells [4] = test: Acridine orange/ethidium bromide (AO/EB) dual nuclear staining, apoptotic index; format: cell-based, human; details: HCT-116, AO/EB; for percentage apoptotic nuclei (apoptotic index): mean ± SEM
Description: DNA-binding dyes Acridine orange (AO) and Ethidium bromide (EB) (Sigma, USA) were used for the morphological detection of apoptotic cells. 5 x 10^3 cells were seeded per well in 24-well plates with DMEM, containing 10 % FBS. After 24 h, cells were treated with selected concentrations of test compounds and incubated for 24 h. The media was removed and plate was washed with phosphate buffer saline (PBS, pH 7.4). Cells were fixed in ice-cold methanol for 20 min, washed with PBS again and stained with acridine orange and ethidium bromide stain (20/30 µg/ml). After incubation for 20 min at 37 °C, and washing with PBS thrice, the plate was observed under a fluorescent microscope for morphological changes in nucleus such as condensed chromatin and fragmented nuclei. The apoptotic index (AI) was calculated as % of apoptotic cells from randomly counted 100 cells in each treatment group (Reddy et al., 2015[25]).

HCT-116 cells [5] = test: Cell cycle analysis by flow cytometry with propidium iodide; format: cell-based, human; details: for phase of cell cycle arrest: HCT-116, AC-10 100 µM, AC-13 and AC-14 50 µM, doxorubicin 1 µM
Description: Flow cytometric analysis technique evaluates the effect of test compounds on cell cycle progression and check-points. Cells (1 x 10^6) were seeded in 25 cm^2 flasks and, after overnight adherence, incubated with test compounds. Then cells were detached by trypsinization and mixed with floating cells, centrifuged and washed with PBS. The cell pellets were fixed in 70 % ice-cold methanol and stored at -20 °C for 24 h. After that cell pellets were washed with PBS and isotonic PI solution [25 µM propidium iodide, 0.03 % NP-40 and 40 µg /ml RNase A] was added. The stained cells were analyzed using Accuri C6 flow cytometer (BD Biosciences, San Jose, CA, USA) with excitation at 488 nm and emission at 575/40 nm (Reddy et al., 2015[25]).

| Compound | IC50 ([1]; Chlorocebus sabaeus, Vero) | IC50 ([2]; Homo sapiens, MCF7) | melting point | IC50 ([3]; Homo sapiens, HCT-116) | IC50 (μM) MCF-7 [2] | cytotoxicity against HCT-116 (in words) [3] | cytotoxicity against MCF-7 (in words) [2] | also measured |
| --- | --- | --- | --- | --- | --- | --- | --- | --- |
| Nc1ccc(O)c(C(=O)/C=C/c2ccccc2)c1 [AC-1, (E)-1-(5-Amino-2-Hydroxyphenyl)-3-phenylprop-2-en-1-one] | > 200 µM | 1960 ± 776 µM | 126 °C | 299 ± 49.8 µM |  |  |  |  |
| Nc1ccc(O)c(C(=O)/C=C/c2ccc(Cl)cc2)c1 [AC-2, (E)-1-(5-Amino-2-Hydroxyphenyl)-3-(4-chlorophenyl)prop-2-en-1-one] | > 200 µM |  | 138 °C | 205 ± 3.15 µM | No activity | high cytotoxicity |  |  |
| Nc1ccc(O)c(C(=O)/C=C/c2ccc(F)cc2)c1 [AC-3, (E)-1-(5-Amino-2-Hydroxyphenyl)-3-(4-fluorophenyl)prop-2-en-1-one] | > 200 µM | 542 ± 38.5 µM | 154 °C | 174 ± 3.53 µM |  | high cytotoxicity |  |  |
| Nc1ccc(O)c(C(=O)/C=C/c2cccc([N+](=O)[O-])c2)c1 [AC-4, (E)-1-(5-Amino-2-Hydroxyphenyl)-3-(3-nitrophenyl)prop-2-en-1-one] | > 200 µM |  | 112 °C | 309 ± 74.1 µM | No activity |  |  |  |
| CCOc1ccc(/C=C/C(=O)c2cc(N)ccc2O)cc1 [AC-5, (E)-1-(5-Amino-2-Hydroxyphenyl)-3-(4-ethoxyphenyl)prop-2-en-1-one] | > 200 µM |  | 135 °C |  | No activity |  |  | IC50 (μM) HCT-116 [3]: No activity |
| COc1cccc(/C=C/C(=O)c2cc(N)ccc2O)c1 [AC-6, (E)-1-(5-Amino-2-Hydroxyphenyl)-3-(3-methoxyphenyl)prop-2-en-1-one] | > 200 µM |  | 110 °C |  | No activity |  |  | IC50 (μM) HCT-116 [3]: No activity |
| COc1cc(/C=C/C(=O)c2cc(N)ccc2O)ccc1O [AC-7, (E)-1-(5-Amino-2-Hydroxyphenyl)-3-(4-hydroxy-3-methoxyphenyl)prop-2-en-1-one] | > 200 µM | 248 ± 4.31 µM | 136 °C | 393 ± 77.9 µM |  |  |  |  |
| COc1ccc(/C=C/C(=O)c2cc(N)ccc2O)cc1O [AC-8, (E)-1-(5-Amino-2-Hydroxyphenyl)-3-(3-hydroxy-4-methoxyphenyl)prop-2-en-1-one] | > 200 µM | 171 ± 12.9 µM | 136 °C | 123 ± 7.2 µM |  | high cytotoxicity | high cytotoxicity |  |
| COc1ccc(/C=C/C(=O)c2cc(N)ccc2O)cc1OC [AC-9, (E)-1-(5-Amino-2-Hydroxyphenyl)-3-(3,4-dimethoxyphenyl)prop-2-en-1-one] | > 200 µM | 190 ± 10.5 µM | 90 °C | 186 ± 7.3 µM |  | high cytotoxicity | high cytotoxicity |  |
| Nc1ccc(O)c(C(=O)/C=C/c2ccccc2O)c1 [AC-10, (E)-1-(5-Amino-2-Hydroxyphenyl)-3-(2-hydroxyphenyl)prop-2-en-1-one] | > 200 µM | 74.7 ± 3.5 µM | 130 to 132 °C | 95.4 ± 1.7 µM |  | high cytotoxicity | high cytotoxicity | percentage apoptotic nuclei (apoptotic index) (HCT-116 cells [4]; 100 µM): 27 ± 3.21%; % cells in G0/G1 phase (M1) (HCT-116 cells [5]; HCT-116, 100 µM, 48 h treatment): 70.5%; phase of cell cycle arrest (HCT-116 cells [5]): G0/G1 phase |
| COc1ccc(/C=C/C(=O)c2cc(N)ccc2O)cc1 [AC-11, (E)-1-(5-Amino-2-Hydroxyphenyl)-3-(4-methoxyphenyl)prop-2-en-1-one] | > 200 µM | 1030 ± 60.6 µM | 102 to 104 °C |  |  |  |  | IC50 (μM) HCT-116 [3]: No activity |
| Nc1ccc(O)c(C(=O)/C=C/c2ccc3c(c2)OCO3)c1 [AC-13, (E)-1-(5-Amino-2-Hydroxyphenyl)-3-(3,4-methylenedioxyphenyl)prop-2-en-1-one] | > 200 µM | 130 ± 3.8 µM | 128 °C | 42.1 ± 4 µM |  | high cytotoxicity | high cytotoxicity | increase in apoptotic nuclei compared to medium control (HCT-116 cells [4]; 50 µM): about five; percentage apoptotic nuclei (apoptotic index) (HCT-116 cells [4]; 50 µM): 31% and 31 ± 4.16%; % cells in G0/G1 phase (M1) (HCT-116 cells [5]; HCT-116, 50 µM, 48 h treatment): 66.5%; % cells in G2/M phase (M3) (HCT-116 cells [5]; HCT-116, 50 µM, 48 h treatment): 25.1%; phase of cell cycle arrest (HCT-116 cells [5]): G0/G1 and G2/M phase |
| COc1cc(/C=C/C(=O)c2cc(N)ccc2O)cc(OC)c1OC [AC-14, (E)-1-(5-Amino-2-Hydroxyphenyl)-3-(3,4,5-trimethoxyphenyl)prop-2-en-1-one] | > 200 µM | 197 ± 7.9 µM | 136 to 138 °C | 62 ± 2.3 µM |  | high cytotoxicity | high cytotoxicity | percentage apoptotic nuclei (apoptotic index) (HCT-116 cells [4]; 50 µM): 24.3 ± 3.53%; % cells in G0/G1 phase (M1) (HCT-116 cells [5]; HCT-116, 50 µM, 48 h treatment): 70.8%; phase of cell cycle arrest (HCT-116 cells [5]): G0/G1 phase |
| Nc1ccc(O)c(C(=O)/C=C/c2ccc(OCc3ccccc3)cc2)c1 [AC-15, (E)-1-(5-Amino-2-Hydroxyphenyl)-3-(4-benzyloxyphenyl)prop-2-en-1-one] | > 200 µM |  | 136 to 138 °C | 211 ± 26 µM | No activity |  |  |  |
| COc1cccc2c1C(=O)c1c(O)c3c(c(O)c1C2=O)C[C@@](O)(C(=O)CO)C[C@@H]3O[C@H]1C[C@H](N)[C@H](O)[C@H](C)O1 [doxorubicin, reference compound] |  |  |  |  |  |  |  | more accumulation of cells in G2/M phase as compared to normal control (HCT-116 cells [5]; HCT-116, 1 µM (standard), normal control 23.0 %): 7.4%; phase of cell cycle arrest (HCT-116 cells [5]): G2/M phase |
| (E)-1-(5-Amino-2-Hydroxyphenyl)-3-(3,4-dichlorophenyl)prop-2-en-1-one [AC-12] |  |  |  |  |  |  |  | IC50 [1]: > 200 µM; IC50 [2]: 236 ± 9.8 µM; IC50 [3]: 169 ± 66.7 µM |

Reference: article PMC4849104, “Selected novel 5'-amino-2'-hydroxy-1, 3-diaryl-2-propen-1-ones arrest cell cycle of HCT-116 in G0/G1 phase” (EXCLI Journal, 2016)
